Data: US11999957B2, “Method for enhancing vanillin resistance of Saccharomyces cerevisiae by knocking out SNG1 gene” (QILU UNIVERSITY OF TECHNOLOGY, priority 2020, dated 2024)

Legend:
sng1Δ mutant [1] = experiment: Shake-flask fermentation under vanillin stress (OD600 growth); assay type: cell-based, Saccharomyces cerevisiae
Description: (§1) A single colony of the sng1Δ mutant was picked, transferred to 1-2 mL of a SC medium and cultured at 30° C. and 200 rpm for about 24 h. The cell suspension was transferred to 20 mL of fresh medium at an initial OD600 of 0.2 and cultured at 30° C. and 200 rpm overnight to the mid log phase for secondary activation. Then the cell culture, at an initial OD600 of 0.2, was transferred to 40 mL of a SC medium containing 6 mmol/L of vanillin and cultured at 30° C. and 200 rpm under shaking, where the OD600 was regularly measured.
(§2) The maximum specific growth rate was obtained by calculating a […] regression slope of ln(OD600) versus time in the logarithmic growth phase.

wild-type BY4741 strain = experiment: as above; assay type: cell-based, Saccharomyces cerevisiae; conditions: wild-type BY4741, SC medium containing 6 mmol/L of vanillin, 30° C., 200 rpm
Description: as §1, §2
Similarly, the specific consumption rate of vanillin in the wild-type BY4741 strain was calculated to be 0.035 g g^−1 h^−1 according to the above method (FIG. 4).

sng1Δ mutant [2] = experiment: Growth on YEPD plate containing vanillin (spot dilution test); assay type: cell-based, Saccharomyces cerevisiae; conditions: YEPD plate with 6 mmol/L of vanillin, 30° C., 1-3 days, sng1Δ mutant vs control strain
Description: The sng1Δ mutant obtained above was cultured on a YEPD plate containing 6 mmol/L of vanillin to observe its growth status. Specifically, the sng1Δ mutant was inoculated to 1-2 mL of a liquid YEPD medium and cultured at 30° C. overnight to logarithmic growth phase. Then the mutant cells were transferred to 5 mL of fresh medium at an initial OD600 of 0.2, cultured overnight and centrifuged. The cells were collected, washed with 1 mL of sterile water three times and centrifuged at 8,000 r/min. The cells were again suspended with sterile water and placed at 30° C. for 9 h to prepare resting cells, and during the preparation, the medium was prepared, poured to a plate and naturally dried. The cell suspension was adjusted to OD600 of 1.0 and subjected to 10-fold serial dilution, and 4 μL of the suspension at each dilution was dropped on the plate, cultured at 30° C. for 1-3 days and photographed to observe the colony growth. The control strain was tested in the same way for the vanillin resistance.

Saccharomyces cerevisiae = conditions: 0.9 g/L vanillin; extended from 2 hours without vanillin; cited from earlier work

Compound: COc1cc(C=O)ccc1O [vanillin]
- maximum specific growth rate (sng1Δ mutant [1]; sng1Δ mutant, SC medium containing 6 mmol/L of vanillin, aerobic, shaking, 30° C., 200 rpm): 0.225 h⁻¹
- improvement of maximum specific growth rate of sng1Δ mutant compared to the control strain (sng1Δ mutant [1]; under vanillin stress (6 mmol/L), sng1Δ mutant vs BY4741): 70%
- maximum specific growth rate (wild-type BY4741 strain): 0.132 h⁻¹
- growth status on plate under vanillin stress (sng1Δ mutant [2]): superior growth status to the control strain
- delay period (lag) of growth (Saccharomyces cerevisiae): about 24 hours
